Experimental findings from ChEMBL document CHEMBL1909046, “DrugMatrix in vitro pharmacology data” are described below.

Data set [1] is described as follows: DRUGMATRIX: Leukotriene, BLT (LTB4) radioligand binding (ligand: [3H]LTB4). The format is cell membranes, Membrane. The note with it: u-937; Not Active = under 50% inhibition at 10 µM.
Data set [2] addresses T1, Cytochrome P450 2A6 (Homo sapiens, UniProt P11509).
T1 sequence (P11509 whole entry): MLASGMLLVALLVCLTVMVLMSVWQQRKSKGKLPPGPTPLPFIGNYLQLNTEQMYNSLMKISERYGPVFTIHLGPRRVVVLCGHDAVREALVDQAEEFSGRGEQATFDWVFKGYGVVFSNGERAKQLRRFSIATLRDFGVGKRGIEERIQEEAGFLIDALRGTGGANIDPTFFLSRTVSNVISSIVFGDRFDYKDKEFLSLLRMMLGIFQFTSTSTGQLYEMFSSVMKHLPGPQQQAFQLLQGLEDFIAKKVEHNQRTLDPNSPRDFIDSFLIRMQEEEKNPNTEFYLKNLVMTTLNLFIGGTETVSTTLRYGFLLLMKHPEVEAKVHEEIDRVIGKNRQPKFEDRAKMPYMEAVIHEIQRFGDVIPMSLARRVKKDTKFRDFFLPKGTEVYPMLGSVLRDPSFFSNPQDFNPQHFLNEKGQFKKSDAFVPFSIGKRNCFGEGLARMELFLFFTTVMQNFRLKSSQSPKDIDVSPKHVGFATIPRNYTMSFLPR
The note with it: bti-tn-5b1-4.

Data set [3] in a line: DRUGMATRIX: Calcium Channel Type L, Phenylalkylamine radioligand binding (ligand: [3H] (-)-Desmethoxyverapamil (D-888)). The class given is cell membranes, Rattus norvegicus, Wistar, Brain, Membrane. The note with it: Not Active = under 50% inhibition at 10 µM.
The target in data set [4] is T2, Muscarinic acetylcholine receptor M4 (Homo sapiens, UniProt P08173). Also: in other assays of this panel Not Active means under 50% inhibition at 10 µM.
T2 sequence (P08173 whole entry): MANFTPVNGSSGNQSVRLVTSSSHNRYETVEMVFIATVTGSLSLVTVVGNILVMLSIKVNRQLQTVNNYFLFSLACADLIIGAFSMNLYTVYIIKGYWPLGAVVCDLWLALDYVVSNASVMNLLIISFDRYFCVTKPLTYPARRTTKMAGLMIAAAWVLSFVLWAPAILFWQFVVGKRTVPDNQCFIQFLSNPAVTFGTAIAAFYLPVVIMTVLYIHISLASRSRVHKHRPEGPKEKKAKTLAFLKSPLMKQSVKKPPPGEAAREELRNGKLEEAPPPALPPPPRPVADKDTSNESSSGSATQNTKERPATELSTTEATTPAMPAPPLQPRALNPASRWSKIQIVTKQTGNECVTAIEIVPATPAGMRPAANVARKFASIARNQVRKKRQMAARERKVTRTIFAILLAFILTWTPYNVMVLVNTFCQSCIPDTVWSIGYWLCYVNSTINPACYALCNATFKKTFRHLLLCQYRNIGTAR
The format is cell membranes, CHO-K1, Membrane. The note with it: for Ki: read-out: Ki.

In data set [5] the target is Melanocortin receptor 4 (Homo sapiens, UniProt P32245). The class given is cell membranes, HEK293, Membrane. The note with it: hek293. Also: in other assays of this panel Not Active means under 50% inhibition at 10 µM.
In data set [6] the target is D(1A) dopamine receptor (Homo sapiens, UniProt P21728). Put plainly: DRUGMATRIX: Dopamine D1 radioligand binding (ligand: [3H] SCH-23390). The format is cell membranes, CHO, Membrane. The note with it: cho; Not Active = under 50% inhibition at 10 µM.
Sequence of D(1A) dopamine receptor (P21728 whole entry): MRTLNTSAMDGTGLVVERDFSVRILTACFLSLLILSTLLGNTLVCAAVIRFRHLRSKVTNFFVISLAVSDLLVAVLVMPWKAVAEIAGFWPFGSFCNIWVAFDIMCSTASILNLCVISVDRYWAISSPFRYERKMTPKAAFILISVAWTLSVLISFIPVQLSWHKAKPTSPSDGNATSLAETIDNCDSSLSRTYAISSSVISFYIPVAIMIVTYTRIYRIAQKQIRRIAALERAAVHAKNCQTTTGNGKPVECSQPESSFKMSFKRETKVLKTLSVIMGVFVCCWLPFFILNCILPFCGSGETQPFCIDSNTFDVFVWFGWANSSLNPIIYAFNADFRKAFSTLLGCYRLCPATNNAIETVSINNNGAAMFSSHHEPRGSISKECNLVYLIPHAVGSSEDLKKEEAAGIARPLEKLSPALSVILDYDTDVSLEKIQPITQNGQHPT

Sequence of Melanocortin receptor 4 (P32245 whole entry): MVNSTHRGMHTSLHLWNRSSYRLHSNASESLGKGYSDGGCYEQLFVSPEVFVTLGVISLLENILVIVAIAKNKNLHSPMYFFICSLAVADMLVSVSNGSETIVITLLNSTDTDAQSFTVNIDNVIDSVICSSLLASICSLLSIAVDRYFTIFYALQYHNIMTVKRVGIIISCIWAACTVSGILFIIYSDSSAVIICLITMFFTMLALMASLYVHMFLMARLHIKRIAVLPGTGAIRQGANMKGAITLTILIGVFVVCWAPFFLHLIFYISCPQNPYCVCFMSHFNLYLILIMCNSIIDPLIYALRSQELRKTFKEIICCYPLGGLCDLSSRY

For `O=C1O[C@H]([C@@H](O)CO)C(O)=C1O` [ASCORBIC ACID], the 50% inhibitory concentration (IC50) entry in data set [1], in data set [2], in data set [3], in data set [4] (cho-k1), in data set [5] and in data set [6] was “Not Active” each time. Besides, the Ki result in data set [1], in data set [2] and in data set [3] was “Not Active” throughout.
Turning to `C[n+]1ccccc1/C=N/O.[Cl-]` [PRALIDOXIME CHLORIDE], the IC50 result in data set [1], in data set [2], in data set [3], in data set [4] (cho-k1), in data set [5] and in data set [6] was “Not Active” throughout. Moreover, the inhibitory constant (Ki) result in data set [1], in data set [2] and in data set [3] was “Not Active” in each case.
Take `COC1=C(OC)C(=O)C(CCCCCCCCCCO)=C(C)C1=O` [IDEBENONE]: the IC50 entry in data set [1], in data set [2], in data set [3], in data set [4] (cho-k1), in data set [5] and in data set [6] was “Not Active” throughout. Moreover, the Ki entry in data set [1], in data set [2] and in data set [3] was “Not Active” in each case.
For `CCC1(CCC(C)C)C(=O)NC(=O)NC1=O` [AMOBARBITAL], the IC50 result in data set [1], in data set [2], in data set [3], in data set [4] (cho-k1), in data set [5] and in data set [6] was “Not Active” each time. Besides, the Ki entry in data set [1], in data set [2] and in data set [3] was “Not Active” in each case.
In the case of `COc1ccc2[nH]cc(CCNC(C)=O)c2c1` [MELATONIN], the concentration for half-maximal inhibition (IC50) entry in data set [1], in data set [2], in data set [3], in data set [4] (cho-k1), in data set [5] and in data set [6] was “Not Active” throughout. In addition, the inhibitory constant (Ki) result in data set [1], in data set [2] and in data set [3] was “Not Active” in each case.
As to `O=C/C=C/c1ccccc1`, the half-inhibitory concentration (IC50) result in data set [1], in data set [2], in data set [3], in data set [4] (cho-k1), in data set [5] and in data set [6] was “Not Active” throughout. In addition, the inhibition constant (Ki) result in data set [1], in data set [2] and in data set [3] was “Not Active” in each case.
Take `CN(C)CC[C@@H](c1ccc(Cl)cc1)c1ccccn1` [DEXCHLORPHENIRAMINE]: the IC50 entry in data set [1] was “Not Active”; in data set [2], “Not Active”; in data set [3] (read-out: IC50) it was 3800 nM; in data set [4] (read-out: IC50), 1980 nM; in data set [5], “Not Active”; in data set [6], “Not Active”. For the same compound, the Ki result in data set [1] is “Not Active”; in data set [2], “Not Active”; in data set [3] (read-out: Ki), 3700 nM; in data set [4], 276 nM.
As to `OC(CCCN1CCCCC1)(c1ccccc1)c1ccccc1` [DIPHENIDOL], the IC50 result was “Not Active” in data set [1]; “Not Active” in data set [2]; 4500 nM in data set [3] (read-out: IC50); 271 nM in data set [4] (read-out: IC50); “Not Active” in data set [5]; “Not Active” in data set [6]. Further, the Ki entry in data set [1] was “Not Active”; in data set [2], “Not Active”; in data set [3] (read-out: Ki) it was 4380 nM; in data set [4] it was 38 nM.
For `CC(=O)O[C@H]1C(=O)[C@@]2(C)[C@H]([C@H](OC(=O)c3ccccc3)[C@]3(O)C[C@H](OC(=O)[C@H](O)[C@@H](NC(=O)c4ccccc4)c4ccccc4)C(C)=C1C3(C)C)[C@]1(OC(C)=O)CO[C@@H]1C[C@@H]2O` [PACLITAXEL], the half-maximal inhibitory concentration (IC50) result in data set [1], in data set [2], in data set [3], in data set [4] (cho-k1), in data set [5] and in data set [6] was “Not Active” in each case. The Ki entry in data set [1], in data set [2] and in data set [3] was “Not Active” in each case.
Regarding `CC1(C)S[C@@H]2[C@H](NC(=O)[C@H](N)c3ccccc3)C(=O)N2[C@H]1C(=O)O` [AMPICILLIN], the IC50 entry in data set [1], in data set [2], in data set [3], in data set [4] (cho-k1), in data set [5] and in data set [6] was “Not Active” in each case. Besides, the Ki result in data set [1], in data set [2] and in data set [3] was “Not Active” each time.
As for `Cn1c(=O)c2c(ncn2CC(O)CO)n(C)c1=O` (centres undefined) [DYPHYLLINE], the half-inhibitory concentration (IC50) entry in data set [1], in data set [2], in data set [3], in data set [4] (cho-k1), in data set [5] and in data set [6] was “Not Active” each time. In addition, the Ki entry in data set [1], in data set [2] and in data set [3] was “Not Active” in each case.
Take `CN(C)[C@@H]1C(O)=C(C(N)=O)C(=O)[C@@]2(O)C(O)=C3C(=O)c4c(O)ccc(Cl)c4[C@@](C)(O)[C@H]3C[C@@H]12` [CHLORTETRACYCLINE]: the IC50 entry in data set [1], in data set [2], in data set [3], in data set [4] (cho-k1), in data set [5] and in data set [6] was “Not Active” throughout. The inhibition constant (Ki) entry in data set [1], in data set [2] and in data set [3] was “Not Active” in each case.
Take `Cn1c(=O)c2[nH]cnc2n(C)c1=O.Cn1c(=O)c2[nH]cnc2n(C)c1=O.NCCN` [AMINOPHYLLINE]: the IC50 entry in data set [1], in data set [2], in data set [3], in data set [4] (cho-k1), in data set [5] and in data set [6] was “Not Active” in each case. For the same compound, the Ki result in data set [1], in data set [2] and in data set [3] was “Not Active” each time.
`C[C@H]1O[C@@H](n2cc(F)c(=O)[nH]c2=O)[C@H](O)[C@@H]1O` [DOXIFLURIDINE]: the IC50 result in data set [1], in data set [2], in data set [3], in data set [4] (cho-k1), in data set [5] and in data set [6] was “Not Active” each time. The inhibition constant Ki result in data set [1], in data set [2] and in data set [3] was “Not Active” in each case.
For the compound `CC(C(=O)O)c1ccc2oc(-c3ccc(Cl)cc3)nc2c1` (centres undefined) [BENOXAPROFEN], the IC50 entry in data set [1], in data set [2], in data set [3], in data set [4] (cho-k1), in data set [5] and in data set [6] was “Not Active” in each case. Moreover, the Ki entry in data set [1], in data set [2] and in data set [3] was “Not Active” in each case.
Consider `Oc1c(Cl)cc(Cl)c(Cl)c1Cc1c(O)c(Cl)cc(Cl)c1Cl` [HEXACHLOROPHENE], for which the IC50 result in data set [1], in data set [2], in data set [3], in data set [4] (cho-k1), in data set [5] and in data set [6] was “Not Active” throughout. The inhibition constant Ki result in data set [1], in data set [2] and in data set [3] was “Not Active” in each case.
For `C#C[C@]1(OC(C)=O)CC[C@H]2[C@@H]3CCC4=C[C@@H](OC(C)=O)CC[C@@H]4[C@H]3CC[C@@]21C` [ETHYNODIOL DIACETATE], the IC50 result in data set [1], in data set [2], in data set [3], in data set [4] (cho-k1), in data set [5] and in data set [6] was “Not Active” in each case. The inhibition constant (Ki) result in data set [1], in data set [2] and in data set [3] was “Not Active” each time.
Regarding `CCC(=O)O[C@]1(C(=O)CCl)[C@@H](C)C[C@H]2[C@@H]3CCC4=CC(=O)C=C[C@]4(C)[C@@]3(F)[C@@H](O)C[C@@]21C` [CLOBETASOL PROPIONATE], the half-inhibitory concentration (IC50) entry in data set [1], in data set [2], in data set [3], in data set [4] (cho-k1), in data set [5] and in data set [6] was “Not Active” in each case. The inhibition constant (Ki) result in data set [1], in data set [2] and in data set [3] was “Not Active” each time.

One may read the IC50 as the concentration needed to halve the response being measured. A word on the Ki: it is a measure of affinity in units of concentration, obtained from inhibition or displacement.
